Molecular target: Ssu72 (dSsu72) (Drosophila melanogaster, UniProt Q9VWE4)
Settings: 25 mM Tris-HCl, 25 mM KCl, 2 mM dithiothreitol, 5% D2O, 30 °C; phosphate up to 25:1 molar ratio; active site loop

Chain of Ssu72 (dSsu72) (Q9VWE4 1-195): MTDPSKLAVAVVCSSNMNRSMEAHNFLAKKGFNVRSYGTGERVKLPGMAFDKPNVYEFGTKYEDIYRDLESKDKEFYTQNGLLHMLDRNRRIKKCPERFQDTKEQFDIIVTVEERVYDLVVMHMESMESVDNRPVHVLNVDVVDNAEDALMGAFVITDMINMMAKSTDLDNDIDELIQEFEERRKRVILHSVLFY

Compound: O=P(O)(O)O [inorganic phosphate]
- NMR titration, 1H/15N-HSQC-TROSY chemical shift perturbation: large number of significant perturbations upon titration of wild-type Ssu72 with inorganic phosphate
